Data reported in US20040248963A1, “Prodrugs of excitatory amino acids” (priority 2001, published 2004).

SMILES	melting point
Cl.N[C@@]1(C(=O)OCOC(=O)c2ccc3ccccc3c2)CC[C@H]2[C@H](C(=O)O)[C@H]21	184 to 185 °C
CC(C)OC(=O)OCOC(=O)[C@H]1[C@@H]2CC[C@@](N)(C(=O)OCOC(=O)OC(C)C)[C@@H]21.Cl	52 °C
CC(C)(C)C(=O)OCOC(=O)[C@H]1[C@@H]2CC[C@@](N)(C(=O)O)[C@@H]21.Cl	258 °C (dec.)
CC(C)C(=O)OCOC(=O)[C@H]1[C@@H]2CC[C@@](N)(C(=O)OCOC(=O)C(C)C)[C@@H]21.Cl	224 to 226 °C
Cl.N[C@@]1(C(=O)OCOC(=O)c2cccc3ccccc23)CC[C@H]2[C@H](C(=O)OCOC(=O)c3cccc4ccccc34)[C@H]21	92 to 94 °C
Cl.N[C@@]1(C(=O)OCOC(=O)c2ccc3ccccc3c2)CC[C@H]2[C@H](C(=O)OCOC(=O)c3ccc4ccccc4c3)[C@H]21	125 to 127 °C
CCCC(=O)OCOC(=O)[C@H]1[C@@H]2CC[C@@](N)(C(=O)O)[C@@H]21 [Example 24, (1S,2S,5R,6S)-2-amino-bicyclo[3.1.0]hexane-2,6-dicarboxylic acid 6-n-butyryloxymethyl ester]	199 to 200 °C
COC(=O)OCOC(=O)[C@H]1[C@@H]2CC[C@@](N)(C(=O)O)[C@@H]21 [Example 25, (1S,2S,5R,6S)-2-amino-bicyclo[3.1.0]hexane-2,6-dicarboxylic acid 6-methoxycarbonyloxymethyl ester]	214 to 215 °C
CC(C)OC(=O)OCOC(=O)[C@]1(N)CC[C@H]2[C@H](C(=O)O)[C@H]21.Cl [Example 14, (1S,2S,5R,6S)-2-Amino-bicyclo[3.1.0]hexane-2,6-dicarboxylic acid 2-isopropyloxycarbonyloxymethyl ester hydrochloride]	59 to 60 °C
CC(C)(C)C(=O)OCOC(=O)[C@H]1[C@@H]2CC[C@@](N)(C(=O)O)[C@@H]21 [Example 21, (1S,2S,5R,6S)-2-Amino-bicyclo[3.1.0]hexane-2,6-dicarboxylic acid 6-tert-butylcarbonyloxymethyl ester]	205 to 206 °C
Cl.N[C@@]1(C(=O)O)CC[C@H]2[C@H](C(=O)OCOC(=O)c3ccccc3)[C@H]21	230 °C (dec.)
Cl.N[C@@]1(C(=O)OCOC(=O)c2ccccc2)CC[C@H]2[C@H](C(=O)OCOC(=O)c3ccccc3)[C@H]21 [Example 43, (1S,2S,5R,6S)-2-Amino-bicyclo[3.1.0]hexane-2,6-dicarboxylic acid, 2,6-dibenzoyloxymethyl ester hydrochloride]	73 °C
CC(C)OC(=O)OCOC(=O)[C@H]1[C@@H]2CC[C@@](N)(C(=O)O)[C@@H]21 [Example 23, (1S,2S,5R,6S)-2-Amino-bicyclo[3.1.0]hexane-2,6-dicarboxylic acid 6-isopropyloxycarbonyloxymethyl ester]	196 to 197 °C
Cc1oc(=O)oc1COC(=O)[C@H]1[C@@H]2CC[C@@](N)(C(=O)O)[C@@H]21 [Example 26, (1S,2S,5R,6S)-2-amino-bicyclo[3.1.0]hexane-2,6-dicarboxylic acid 6-(5′-methyl-2′-oxo-[1′,3′]dioxolen-4′-yl)methyl ester]	180 °C (dec.)
Cl.N[C@@]1(C(=O)OCOC(=O)c2cccc3ccccc23)CC[C@H]2[C@H](C(=O)O)[C@H]21 [Example 17, (1S,2S,5R,6S)-2-amino-bicyclo[3.1.0]hexane-2,6-dicarboxylic acid 2-(naphthalene-1′-carbonyloxymethyl) ester hydrochloride]	212 to 213 °C
